According to ChEMBL document CHEMBL6178023 (J Med Chem, 2025):
In brackets after ≈: the same amount, converted by molar mass. Activity calls are given as the source filed them. The calls are words filed in the database; no cut-off is given here.

Experiments:
Chikungunya virus [1] = test: Inhibition of N-terminal 6-His/SUMO-tagged CHIKV 181/25 nsP2 extracted from Escherichia coli Rosetta 2 at 200 uM preincubated for 30 mins followed by ATP addition measured after 1 hr by ADP-Glo assay relative to control; settings: time 90.0 min
Chikungunya virus [2] = test: Antiviral activity against CHIKV 181/25 expressing nLuc-capsid gene infected in human MRC5 cells assessed as inhibition of viral replication at 40 uM preincubated with cells for 1 hr followed by viral infection measured after 6 hrs post-infection by Nano-glo luciferase assay relative to control; assay type: functional; settings: for inhibition: time 7.0 hrs; for inhibition at 40 µM: 181/25, MRC5, time 7 hrs
MRC5 = test: Cytotoxicity against human MRC5 cells at 10 to 40 uM by Cell Titer Glo assay; assay type: toxicity, cell-based; settings: mrc5, 40 µM, dose 10-40 µM
Chikungunya virus [3] = test: Antiviral activity against CHIKV 181/25 expressing nLuc-capsid gene infected in human MRC5 cells assessed as reduction in viral replication preincubated with cells for 1 hr followed by viral infection measured after 6 hrs post-infection by Nano-glo luciferase assay; assay type: functional, organism-based; settings: 181/25, MRC5, read-out: pEC50 (converted)
[4] = Aqueous solubility of compound in PBS at pH 7.4; assay type: physicochemical
Polyprotein P1234 [5] = biological target: T1, Polyprotein P1234 (Chikungunya virus (strain S27-African prototype) (CHIKV), UniProt Q8JUX6); test: Inhibition of N-terminal 6-His/SUMO-tagged CHIKV 181/25 nsP2 extracted from Escherichia coli Rosetta 2 preincubated for 30 mins followed by ATP addition measured after 1 hr by ADP-Glo assay
T1 sequence (Q8JUX6 536-1333 limits assumed): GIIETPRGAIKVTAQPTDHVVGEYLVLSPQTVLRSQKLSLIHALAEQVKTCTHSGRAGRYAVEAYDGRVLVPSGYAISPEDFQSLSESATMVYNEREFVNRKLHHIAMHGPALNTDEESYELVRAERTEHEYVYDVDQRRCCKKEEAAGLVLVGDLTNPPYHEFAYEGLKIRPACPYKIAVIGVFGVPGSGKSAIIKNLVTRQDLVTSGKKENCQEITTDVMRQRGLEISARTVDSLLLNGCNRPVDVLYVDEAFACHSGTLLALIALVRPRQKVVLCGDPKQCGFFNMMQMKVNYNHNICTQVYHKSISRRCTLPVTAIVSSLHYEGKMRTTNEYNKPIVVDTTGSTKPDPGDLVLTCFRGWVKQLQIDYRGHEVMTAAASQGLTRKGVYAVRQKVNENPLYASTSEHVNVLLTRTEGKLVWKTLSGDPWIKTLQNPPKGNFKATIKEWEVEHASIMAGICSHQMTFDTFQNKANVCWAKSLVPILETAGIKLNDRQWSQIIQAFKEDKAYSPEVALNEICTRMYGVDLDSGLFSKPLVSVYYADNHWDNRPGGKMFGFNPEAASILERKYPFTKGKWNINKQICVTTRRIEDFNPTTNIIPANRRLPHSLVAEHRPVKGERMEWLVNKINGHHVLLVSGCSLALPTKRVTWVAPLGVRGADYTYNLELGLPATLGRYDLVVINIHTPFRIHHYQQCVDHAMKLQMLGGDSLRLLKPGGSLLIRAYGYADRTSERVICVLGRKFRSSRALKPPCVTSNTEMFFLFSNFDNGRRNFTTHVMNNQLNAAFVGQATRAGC

[6] = Selectivity ratio of pEC50 for antiviral activity against VEEV expressing nLuc to pEC50 for antiviral activity against CHIKV 181/25 expressing nLuc-capsid gene infected in human MRC5 cells; assay type: functional
[7] = Aqueous solubility of compound; assay type: physicochemical; settings: buffer
Mayaro virus [8] = test: (§1) Anti-viral activity against MAYV infected in human NHDF cells assessed as log reduction in viral titer at 0.01 to 100 uM incubated with cells for 1 hr followed by viral infection for 2 hrs and subsequent replacement of fresh media with compound measured after 24 hrs post-infection by extracting viral supernatant from cells and transferring supernatant to African geen monkey Vero cells for measuring plaque formation; assay type: functional; settings: dose 0.01-100 µM; time 25 hrs
[9] = biological target: Polyprotein P1234 (Chikungunya virus (strain S27-African prototype) (CHIKV)) (UniProt Q8JUX6); test: Binding affinity to N-terminal 6-His/SUMO-tagged CHIKV 181/25 nsP2 extracted from Escherichia coli Rosetta 2 assessed as decrease in Vmax up to 2.5 uM in presence of [alpha-32P]-ATP by TLC method
Target sequence in this assay (Q8JUX6 whole entry): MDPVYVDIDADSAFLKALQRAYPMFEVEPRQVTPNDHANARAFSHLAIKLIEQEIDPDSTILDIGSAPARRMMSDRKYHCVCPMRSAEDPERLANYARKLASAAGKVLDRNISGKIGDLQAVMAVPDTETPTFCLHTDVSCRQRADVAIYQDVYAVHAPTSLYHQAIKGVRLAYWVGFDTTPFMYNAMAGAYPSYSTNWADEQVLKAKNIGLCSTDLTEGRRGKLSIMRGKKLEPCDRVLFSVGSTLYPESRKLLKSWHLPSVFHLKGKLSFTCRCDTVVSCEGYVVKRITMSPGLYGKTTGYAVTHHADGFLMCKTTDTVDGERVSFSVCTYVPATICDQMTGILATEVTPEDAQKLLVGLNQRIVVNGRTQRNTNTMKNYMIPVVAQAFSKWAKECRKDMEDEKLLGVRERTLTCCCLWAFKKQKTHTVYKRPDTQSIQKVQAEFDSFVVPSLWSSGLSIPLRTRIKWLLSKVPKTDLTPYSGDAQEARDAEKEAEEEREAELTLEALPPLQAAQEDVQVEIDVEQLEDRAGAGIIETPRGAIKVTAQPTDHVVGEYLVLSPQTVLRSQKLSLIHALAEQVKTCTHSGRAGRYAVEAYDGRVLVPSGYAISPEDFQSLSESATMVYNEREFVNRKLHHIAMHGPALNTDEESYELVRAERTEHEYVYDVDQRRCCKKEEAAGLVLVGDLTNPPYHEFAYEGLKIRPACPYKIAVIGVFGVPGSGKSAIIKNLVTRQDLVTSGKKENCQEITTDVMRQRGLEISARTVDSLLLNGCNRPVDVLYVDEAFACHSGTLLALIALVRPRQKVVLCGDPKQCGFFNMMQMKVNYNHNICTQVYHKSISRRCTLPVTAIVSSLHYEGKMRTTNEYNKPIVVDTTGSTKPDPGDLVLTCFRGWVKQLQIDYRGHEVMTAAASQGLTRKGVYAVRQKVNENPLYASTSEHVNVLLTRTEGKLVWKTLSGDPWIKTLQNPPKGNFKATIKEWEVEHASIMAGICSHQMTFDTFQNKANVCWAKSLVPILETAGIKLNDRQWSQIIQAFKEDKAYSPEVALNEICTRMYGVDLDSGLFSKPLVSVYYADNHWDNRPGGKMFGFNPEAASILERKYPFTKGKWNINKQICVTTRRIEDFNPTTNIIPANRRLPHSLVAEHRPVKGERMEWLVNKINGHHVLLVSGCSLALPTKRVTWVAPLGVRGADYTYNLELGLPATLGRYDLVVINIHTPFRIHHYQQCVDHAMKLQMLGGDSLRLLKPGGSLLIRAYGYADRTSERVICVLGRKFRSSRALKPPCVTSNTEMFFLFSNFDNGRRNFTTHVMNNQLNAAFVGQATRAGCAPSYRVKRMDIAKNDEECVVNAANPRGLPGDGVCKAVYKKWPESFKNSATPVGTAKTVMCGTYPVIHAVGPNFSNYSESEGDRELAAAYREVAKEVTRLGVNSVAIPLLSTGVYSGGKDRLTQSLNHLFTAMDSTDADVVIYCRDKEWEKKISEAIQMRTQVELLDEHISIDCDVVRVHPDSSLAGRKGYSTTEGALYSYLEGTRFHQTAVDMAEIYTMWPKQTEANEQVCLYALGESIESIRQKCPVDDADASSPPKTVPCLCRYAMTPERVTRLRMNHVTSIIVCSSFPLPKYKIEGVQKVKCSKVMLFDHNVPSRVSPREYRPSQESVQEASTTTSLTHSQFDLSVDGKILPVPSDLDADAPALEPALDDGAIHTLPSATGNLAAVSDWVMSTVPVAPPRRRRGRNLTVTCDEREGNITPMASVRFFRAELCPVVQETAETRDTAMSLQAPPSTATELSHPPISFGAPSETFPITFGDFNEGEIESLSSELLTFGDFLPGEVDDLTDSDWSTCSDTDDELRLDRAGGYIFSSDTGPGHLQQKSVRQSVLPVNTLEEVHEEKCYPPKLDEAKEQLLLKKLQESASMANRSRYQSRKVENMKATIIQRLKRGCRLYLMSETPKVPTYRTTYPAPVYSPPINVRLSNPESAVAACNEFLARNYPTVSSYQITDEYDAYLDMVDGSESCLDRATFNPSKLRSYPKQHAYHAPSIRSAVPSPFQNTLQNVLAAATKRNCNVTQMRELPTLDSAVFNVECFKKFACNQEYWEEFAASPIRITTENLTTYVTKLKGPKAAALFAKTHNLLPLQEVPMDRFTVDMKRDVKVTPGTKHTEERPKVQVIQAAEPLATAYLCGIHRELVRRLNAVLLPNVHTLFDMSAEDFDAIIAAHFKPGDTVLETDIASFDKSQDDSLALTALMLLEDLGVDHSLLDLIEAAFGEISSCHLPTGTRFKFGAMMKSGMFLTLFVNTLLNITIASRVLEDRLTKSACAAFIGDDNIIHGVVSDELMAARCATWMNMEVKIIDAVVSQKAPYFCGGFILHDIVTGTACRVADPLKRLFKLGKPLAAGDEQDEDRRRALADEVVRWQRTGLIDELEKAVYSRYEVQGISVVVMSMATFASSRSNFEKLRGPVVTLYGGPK

[10] = biological target: Polyprotein P1234 (Chikungunya virus (strain S27-African prototype) (CHIKV)) (UniProt Q8JUX6); test: Binding affinity to N-terminal 6-His/SUMO-tagged CHIKV 181/25 nsP2 extracted from Escherichia coli Rosetta 2 assessed as unchanged Km up to 2.5 uM in presence of [alpha-32P]-ATP by TLC method
Target sequence in this assay (Q8JUX6 whole entry): as above

Mayaro virus [11] = test: as §1, with “as” for “as log”, “titer” for “titer at 0.01 to 100 uM”; assay type: functional, organism-based; settings: dose 0.01-100 µM, time 25.0 hrs
Chikungunya virus [12] = test: as §1, with “CHIKV” for “MAYV”, “as” for “as log”, “titer” for “titer at 0.01 to 100 uM”; assay type: functional, organism-based; settings: dose 0.01-100 µM, time 25.0 hrs
Polyprotein P1234 [13] = biological target: T1, Polyprotein P1234; test: (§2) Inhibition of N-terminal 6-His/SUMO-tagged CHIKV 181/25 nsP2 extracted from Escherichia coli Rosetta 2 assessed as decrease in nsP2 helicase activity in presence of RNA duplex composed of 39mer loading RNA strand/19mer displaced RNA strand by gel electrophoresis
[14] = biological target: Polyprotein P1234 (Chikungunya virus (strain S27-African prototype) (CHIKV)) (UniProt Q8JUX6); test: as §2; settings: dose 0.01-100 µM
Target sequence in this assay (Q8JUX6 536-1333 limits assumed): as the sequence (Q8JUX6 536-1333 limits assumed) above

[15] = biological target: Polyprotein P1234 (Chikungunya virus (strain S27-African prototype) (CHIKV)) (UniProt Q8JUX6); test: Binding affinity to N-terminal 6-His/SUMO-tagged CHIKV 181/25 nsP2 extracted from Escherichia coli Rosetta 2 using fluorescein-labeled dsRNA template incubated for 30 mins by fluorescence polarization assay
Target sequence in this assay (Q8JUX6 whole entry): as the sequence (Q8JUX6 whole entry) above

[16] = biological target: Polyprotein P1234 (Chikungunya virus (strain S27-African prototype) (CHIKV)) (UniProt Q8JUX6); test: Inhibition of N-terminal 6-His/SUMO-tagged CHIKV 181/25 nsP2 extracted from Escherichia coli Rosetta 2 assessed as decrease in nsP2 ATPase activity up to 100 uM measured for 5 to 10 mins in presence of [alpha-32P]-ATP by TLC method; settings: time 5-10 min
Target sequence in this assay (Q8JUX6 whole entry): as above

Compound | inhibition (Chikungunya virus [1]) | Activity (MRC5) | inhibition at 40 µM (Chikungunya virus [2]) [%] | EC50 (Chikungunya virus [3]) [µM] | solubility kinetic [4] [µM] | IC50 (Polyprotein P1234 [5]) [µM] | other results
CN(C)S(=O)(=O)NCC1CCOC2(CCN(C(=O)C3(c4ccncc4)CCCC3)CC2)C1 (stereo not drawn) | inactive | Non-toxic |  |  |  |  | inhibition (Chikungunya virus [2]): inactive
CN(C)S(=O)(=O)NCC1CCOC2(CCN(C(=O)C3(c4cccnc4)CCCC3)CC2)C1 (stereo not drawn) | inactive | Non-toxic | 50 | > 39.8 |  |  | 
CN(C)S(=O)(=O)NCC1CCOC2(CCN(C(=O)C(=O)c3ccccc3)CC2)C1 (stereo not drawn) | inactive | Non-toxic |  |  | 170 (≈ 72 µg/mL) |  | inhibition (Chikungunya virus [2]): inactive
NCC1(O)CCOC2(CCN(C(=O)C3(c4ccccc4)CCCC3)CC2)C1 (stereo not drawn) | inactive | Non-toxic | 50 | > 39.8 | 170 (≈ 63.3 µg/mL) |  | 
CC1(C(=O)N2CCC3(CC2)CC(CNS(C)(=O)=O)CCO3)CCCC1 (stereo not drawn) | inactive | Non-toxic | 40 | > 39.8 |  |  | 
COc1ccc(C2(C(=O)N3CCC4(CC3)CC(CNS(C)(=O)=O)CCO4)CCCC2)cc1 (stereo not drawn) | inactive | Non-toxic |  |  |  |  | inhibition (Chikungunya virus [2]): inactive
CS(=O)(=O)NCC1CCOC2(CCN(C(=O)C3(c4ccccc4)CCCC3)CC2)C1 (stereo not drawn) | 40% | Non-toxic |  | 3.16 |  | > 39.8 | Ratio [6]: 10; solubility [7]: 240 µM (≈ 104 µg/mL)
CS(=O)(=O)NCC1CCOC2(CCN(C(=O)C3(c4ccccc4)CCC3)CC2)C1 (stereo not drawn) | inactive | Non-toxic |  |  | 160 (≈ 67.3 µg/mL) |  | inhibition (Chikungunya virus [2]): inactive
Cc1ccnc(NC2CCOC3(CCN(C(=O)C4(c5ccccc5)CCCC4)CC3)C2)c1 (stereo not drawn) | 70% | Non-toxic |  | 6.31 | 70 (≈ 30.4 µg/mL) | > 39.8 | 
CCS(=O)(=O)NCC1CCOC2(CCN(C(=O)C3(c4ccccc4)CCCC3)CC2)C1 (stereo not drawn) | 70% | Non-toxic |  | 3.16 | 230 (≈ 103 µg/mL) | > 39.8 | 
CC(C)C(=O)NCC1CCOC2(CCN(C(=O)C3(c4ccccc4)CCCC3)CC2)C1 (stereo not drawn) | 80% | Non-toxic |  | 3.98 | 170 (≈ 72.5 µg/mL) | > 39.8 | 
CN(C)S(=O)(=O)NCC1CCOC2(CCN(C(=O)C3(c4ccccc4)CCCO3)CC2)C1 (stereo not drawn) | inactive | Non-toxic |  |  | 200 (≈ 93.1 µg/mL) |  | inhibition (Chikungunya virus [2]): inactive
CN(C)S(=O)(=O)NCC1CCOC2(CCN(C(=O)C3(c4ccccn4)CCCC3)CC2)C1 (stereo not drawn) | 40% | Non-toxic | 70 | > 39.8 |  | > 39.8 | 
O=C(N1CCC2(CC1)CC(CN1CCCCS1(=O)=O)CCO2)C1(c2ccc(F)cc2)CCCC1 (stereo not drawn) | 80% | Non-toxic | 90 | > 39.8 | 190 (≈ 93.6 µg/mL) | > 39.8 | 
NCC1CCOC2(CCN(C(=O)C3(c4ccccc4)CCCC3)CC2)C1 (stereo not drawn) | inactive | Non-toxic | 60 | > 39.8 | 160 (≈ 57 µg/mL) |  | 
CN(CC1CCOC2(CCN(C(=O)C3(c4ccccc4)CCCC3)CC2)C1)C(=O)c1ccccn1 (stereo not drawn) | 80% | Non-toxic |  | 5.01 | 180 (≈ 85.6 µg/mL) | > 39.8 | 

Compound | inhibition (Chikungunya virus [1]) | Activity (MRC5) | inhibition at 40 µM (Chikungunya virus [2]) [%] | EC50 (Chikungunya virus [3]) [µM] | solubility kinetic [4] [µM] | IC50 (Polyprotein P1234 [5]) [µM] | other results
CS(=O)(=O)NCC1CCOC2(CCN(C(=O)Cc3ccccc3)CC2)C1 (stereo not drawn) | inactive | Non-toxic |  |  | 200 (≈ 76.1 µg/mL) |  | inhibition (Chikungunya virus [2]): inactive
CC(C)(C(=O)N1CCC2(CC1)CC(CNS(C)(=O)=O)CCO2)c1ccccc1 (stereo not drawn) | 40% | Non-toxic | 50 | > 39.8 | 220 (≈ 89.9 µg/mL) | > 39.8 | 
Cc1ccc(C2(C(=O)N3CCC4(CC3)CC(CNS(C)(=O)=O)CCO4)CCCC2)cc1 (stereo not drawn) | inactive | Non-toxic |  |  |  |  | inhibition (Chikungunya virus [2]): inactive
O=C(N1CCC2(CC1)CC(CNS(=O)(=O)c1ccccc1)CCO2)C1(c2ccccc2)CCCC1 (stereo not drawn) | 40% | Non-toxic |  | 3.98 | 1 (≈ 0.497 µg/mL) | > 39.8 | 
O=C(NCC1CCOC2(CCN(C(=O)C3(c4ccccc4)CCCC3)CC2)C1)C1CC1 (stereo not drawn) | 80% | Non-toxic |  | 3.98 | 160 (≈ 67.9 µg/mL) | > 39.8 | 
O=C(N1CCC2(CC1)CC(Oc1ccccn1)CCO2)C1(c2ccccc2)CCCC1 (stereo not drawn) | 60% | Non-toxic |  | 1.26 | 20 (≈ 8.41 µg/mL) | > 39.8 | 
CCCCCCOc1ccc(C(=O)NCC2CCOC3(CCN(C(=O)C4(c5ccccc5)CCCC4)CC3)C2)cc1 (stereo not drawn) | inactive | Non-toxic | 70 | > 39.8 | < 1 |  | 
CN(C)S(=O)(=O)NCC1CCOC2(CCN(C(=O)C3(c4ccccc4)CCCC3)CC2)C1 (stereo not drawn) | 90% | Non-toxic |  | 2.51 | 200 (≈ 92.7 µg/mL) | > 39.8 | 
CC(C)(C)NC(=O)NCC1CCOC2(CCN(C(=O)C3(c4ccccc4)CCCC3)CC2)C1 (stereo not drawn) | 80% | Non-toxic |  | 10 | 170 (≈ 77.5 µg/mL) | > 39.8 | 
CS(=O)(=O)NCC1CCOC2(CCN(C(=O)C3(c4ccccc4)CCOCC3)CC2)C1 (stereo not drawn) | inactive | Non-toxic |  |  | 190 (≈ 85.6 µg/mL) |  | inhibition (Chikungunya virus [2]): inactive
NC(=O)NCC1CCOC2(CCN(C(=O)C3(c4ccccc4)CCCC3)CC2)C1 (stereo not drawn) | 50% | Non-toxic |  | 12.6 | 190 (≈ 75.9 µg/mL) | > 39.8 | 
Cc1ccnc(OC2CCOC3(CCN(C(=O)C4(c5ccccc5)CCCC4)CC3)C2)c1 (stereo not drawn) | 40% | Non-toxic |  | 12.6 |  | > 39.8 | Ratio [6]: 10; solubility [7]: 14 µM (≈ 6.08 µg/mL)
CS(=O)(=O)NCC1CCOC2(CCN(C(=O)C3(c4ccc(Cl)cc4)CCCC3)CC2)C1 (stereo not drawn) | inactive | Non-toxic | 70 | > 39.8 |  |  | 
O=C(NCC1CCOC2(CCN(C(=O)C3(c4ccccc4)CCCC3)CC2)C1)c1ccncc1 (stereo not drawn) | 70% | Non-toxic |  | 10 | 170 (≈ 78.5 µg/mL) | > 39.8 | 
O=C(N1CCC2(CC1)CC(CN1CCCCS1(=O)=O)CCO2)C1(c2ccccc2)CCCC1 (stereo not drawn) |  | Non-toxic |  | 0.126 | > 220 | 0.501 | Activity (Mayaro virus [8]): 0.01 10^5No_unit; Activity [9]: Active; Activity [10]: Active; Activity (Mayaro virus [11]): Dose-dependent-effect; Activity (Chikungunya virus [12]): Dose-dependent-effect; IC50 (Polyprotein P1234 [13]): 0.9 µM; inhibition [14]: Dose-dependent-effect; Activity [15]: Active; Compound Did Not Involve Direct Displacement Of Rna Substrate Suggesting Allosteric Mechanism Of Helicase Inhibition; inhibition [16]: Active; Ic50 Of Compound Was Same At Both # And # Mins
CNCC1CCOC2(CCN(C(=O)C3(c4ccccc4)CCCC3)CC2)C1 (stereo not drawn) | inactive | Non-toxic | 60 | > 39.8 | 170 (≈ 63 µg/mL) |  | 
